Assay: Solubility of ionic liquid in 100 g of ink or treating solution
Type: physicochemical
Details: about 23° C., left 1 day
Method: Solubility (the amount of the ionic liquid that can be solved in 100 g of the ink) is defined by mixing the ink and the ionic liquid in predetermined amounts and leaving the resultant mixture for 1 day while keeping it at a temperature of about 23° C. The amount of ionic liquid that has separated from the ink 1 day after mixing is determined as the amount of ionic liquid exceeding the solubility of the ionic liquid in the ink.

| SMILES | Solubility (g) of ionic liquid in 100 g of ink (ink A) | Solubility (g) ionic liquid in 100 g of treating solution (treating solution A) | Solubility (g) of ionic liquid in 100 g of ink (ink B) |
| --- | --- | --- | --- |
| CC[N+](C)(CC)CCOC.O=S(=O)([N-]S(=O)(=O)C(F)(F)F)C(F)(F)F [Example 1-2, N-diethyl-3-methyl-N-(2-methoxyethyl)ammonium bis(trifluoromethanesulfonyl)imide] | 0.1 g or less | 0.1 g or less |  |
| CC[N+](C)(CC)CCOC.F[B-](F)(F)F [Example 1-4, N-diethyl-3-methyl-N-(2-methoxyethyl)tetrafluoroborate] |  |  | less than 5 g |
